Reference: patent US6613762B2, “Gambogic acid, analogs and derivatives as activators of caspases and inducers of apoptosis” (Cytovia, Inc., priority 1999, dated 2003)
Like-named read-outs stand apart in the source and are kept apart here.

Assays:
[1] = test system: caspase cascade, PC-3 cells; assay: Known antineoplastic compounds as caspase cascade activators (Example 92), PC-3; assay type: cell-based, human; conditions: 10 μM final, 24 h; ratio of net RFU to control; ratio around 1 = not an efficient activator
Protocol: (§8) An aliquot of 45 μl of cells was added to a well of a 96-well microtiter plate containing 5 μl of a 10% DMSO in RPMI-1640 media solution containing 100 μM of test compounds (10 μM final). An aliquot of 45 μl of cells was added to a well of a 96-well microtiter plate containing 5 μl of a 10% DMSO in RPMI-1640 media solution without test compound as the control sample. The samples were mixed by agitation and then incubated at 37° C. for 24 h in a 5% CO2-95% humidity incubator. After incubation, the samples were removed from the incubator and 50 μl of a solution containing 20 μM of N-(Ac-DEVD)-N′-ethoxycarbonyl-R110 fluorogenic substrate (SEQ ID NO:1) (Cytovia, Inc.), 20% sucrose (Sigma), 20 mM DTT (Sigma), 200 mM NaCl (Sigma), 40 mM Na PIPES buffer pH 7.2 (Sigma), and 500 μg/ml lysolecithin (Calbiochem) was added. The samples were mixed by agitation and incubated for 3 h at room temperature. Using a fluorescent plate reader (Model 1420 Wallac Instruments), an initial reading (T=0) was made approximately 1-2 min. after addition of the substrate solution, employing excitation at 485 nm and emission at 530 nm, to determine the background fluorescence of the control sample. After the 3 h incubation, the samples were read for fluorescence as above (T=3 h).
(§9) The Relative Fluorescence Unit values (RFU) were used to calculate the sample readings as follows:
(§10) The activity in caspase cascade activation was determined by the ratio of the net RFU value for test compounds to that of control samples.

[2] = test system: caspase cascade, T-47D cells; assay: Known antineoplastic compounds as caspase cascade activators (Example 92), T-47D; assay type: cell-based, human; conditions: 10 μM final, 24 h; ratio of net RFU to control; ratio around 1 = not an efficient activator
Protocol: as §8, §9, §10

[3] = test system: caspase cascade, human leukemia cancer cell line HL-60; assay: Caspase cascade activation assay (Example 90), HL-60; assay type: cell-based; conditions: Homo sapiens, HL-60; 24 h incubation; sigmoidal dose-response; read-out: HL-60 EC50 (caspase activation potency)
Protocol: (§1) Human breast cancer cell lines T-47D and ZR-75-1, human prostate cancer cell line PC-3, human leukemia cancer cell line HL-60 and human non-transformed fibroblast cell line MRC-5 cells were grown according to media component mixtures designated by The American Type Culture Collection+10% FCS (Life Technologies, Inc.), in a 5% CO2-95% humidity incubator at 37° C. T-47D, ZR-75-1 and PC-3 cells were maintained at a cell density between 30 and 80% confluency and for HL-60 at a cell density of 0.1 to 0.6×10^6 cells/m. Cells were harvested at 600× g and resuspended at 0.65×10^6 cells/ml into appropriate media +10% FCS. […] The samples were mixed by agitation and incubated at room temperature.
(§2) The EC50 (nM) was determined by a sigmoidal dose-response calculation (Prism 2.0, GraphPad Software Inc.).

[4] = test system: MRC-5 cells; assay: Inhibition of cell proliferation (GI50) and cell death (LC50), MRC-5; assay type: cell-based; conditions: Homo sapiens, MRC5; MRC-5, 48 h; read-out: GI50 (dose for 50% inhibition of cell proliferation)
Protocol: (§3) T47D, ZR-75-1, PC-3, human prostate cancer cell line DU-145, human non-small cell lung cancer cell line A-549, human small cell lung cancer cell line SHP-77, HL-60 and MRC-5 cells were grown and harvested as in Example 90. […] The samples were mixed by agitation and incubated at 37° C. for 2-4 h in a 5% CO2-95% humidity incubator. […] This determines the possible background absorbance of the test compounds. No absorbance for gambogic acid or its analogs or derivatives was found at 490 nm. After the 2-4 h incubation, the samples were read for absorbance as above (ATest).
(§4) Baseline for GI50 (dose for 50% inhibition of cell proliferation) and LC50 (dose for 50% cell death) of initial cell numbers was determined by adding an aliquot of 90 μl of cells or 90 μl of media, respectively, to wells of a 96-well microtiter plate containing 10 μl of a 10% DMSO in RPMI-1640 media solution. […] The samples were mixed by agitation and incubated at 37° C. for 2-4 h in a 5% CO2-95% humidity incubator. Absorbance was read as above, (AT=0) defining absorbance for initial cell number used as baseline in GI50 determinations and (Amin) defining absorbance for media alone used as baseline in LC50 determinations.
(§5) GI50 (dose for 50% inhibition of cell proliferation)
(§6) LC50 (dose for 50% cell death)
(§7) 50=100×[(ATest−Amin)/(AT=0−Amin)]

[5] = as above; assay type: cell-based; conditions: human
Protocol: as §3, §4, §5, §6, §7

[6] = test system: PC-3 cells; assay: Inhibition of cell proliferation (GI50) and cell death (LC50), PC-3; assay type: cell-based
Protocol: as §3, §4, §5, §6, §7

[7] = test system: caspase cascade, human breast cancer cell line ZR-75-1; assay: Caspase cascade activation assay (Example 90), ZR-75-1; assay type: cell-based; conditions: Homo sapiens, ZR-75-1; 24 h incubation; sigmoidal dose-response; read-out: ZR-75-1 EC50 (caspase activation potency)
Protocol: as §1, §2

[8] = test system: human prostate cancer cell line DU-145; assay: Inhibition of cell proliferation (GI50) and cell death (LC50), DU-145; assay type: cell-based
Protocol: as §3, §4, §5, §6, §7

[9] = test system: caspase cascade, human prostate cancer cell line PC-3; assay: Caspase cascade activation assay (Example 90), PC-3; assay type: cell-based; conditions: 24 h incubation; for EC50: Homo sapiens, sigmoidal dose-response, read-out: PC-3 EC50 (caspase activation potency)
Protocol: as §1, §2

[10] = test system: T-47D cells; assay: Inhibition of cell proliferation (GI50) and cell death (LC50), T-47D; assay type: cell-based; conditions: Homo sapiens, T47D, 48 h; for GI50: read-out: GI50 (dose for 50% inhibition of cell proliferation); for CC50: read-out: LC50 (dose for 50% cell death)
Protocol: as §3, §4, §5, §6, §7

[11] = test system: caspase cascade; assay: Caspase cascade activation assay (Example 90), MRC-5; assay type: cell-based, human; conditions: human
Protocol: as §1, §2

[12] = test system: caspase cascade, human breast cancer cell line T-47D; assay: Caspase cascade activation assay (Example 90), T-47D; assay type: cell-based; conditions: 24 h incubation; for EC50: Homo sapiens, T47D, sigmoidal dose-response, read-out: T-47D EC50 (caspase activation potency)
Protocol: as §1, §2

[13] = test system: human non-small cell lung cancer cell line A-549; assay: Inhibition of cell proliferation (GI50) and cell death (LC50), A-549; assay type: cell-based; conditions: Homo sapiens
Protocol: as §3, §4, §5, §6, §7

[14] = test system: human small cell lung cancer cell line SHP-77; assay: Inhibition of cell proliferation (GI50) and cell death (LC50), SHP-77; assay type: cell-based; conditions: Homo sapiens
Protocol: as §3, §4, §5, §6, §7

[15] = test system: ZR-75-1 cells; assay: Inhibition of cell proliferation (GI50) and cell death (LC50), ZR-75-1; assay type: cell-based; conditions: Homo sapiens, ZR-75-1, 48 h
Protocol: as §3, §4, §5, §6, §7

[16] = test system: HL-60 cells; assay: Inhibition of cell proliferation (GI50) and cell death (LC50), HL-60; assay type: cell-based; conditions: Homo sapiens, HL-60, 48 h
Protocol: as §3, §4, §5, §6, §7

[17] = Homo sapiens, PC-3, 48 h; read-out: GI50 (dose for 50% inhibition of cell proliferation)
[18] = Homo sapiens, DU-145, 48 h; read-out: GI50 (dose for 50% inhibition of cell proliferation)
[19] = Homo sapiens, PC-3, 48 h, read-out: LC50 (dose for 50% cell death)
[20] = Homo sapiens, DU-145, 48 h, read-out: LC50 (dose for 50% cell death)
[21] = ratio of net RFU of test compound to control, 0.16 to 10 μM
[22] = read-out: LC50 (dose for 50% cell death)
[23] = read-out: GI50 (dose for 50% inhibition of cell proliferation)

O=c1[nH]cc(F)c(=O)[nH]1 [5-fluorouracil]
Caspase cascade activation ratio, PC-3 [1]: 0.7 | Caspase cascade activation ratio, T-47D [2]: 0.8

CC[C@@]1(O)C(=O)OCc2c1cc1n(c2=O)Cc2cc3ccccc3nc2-1 [Camptothecin]
Caspase cascade activation ratio, PC-3 [1]: 0.6 | Caspase cascade activation ratio, T-47D [2]: 0.7

COc1cccc2c1C(=O)c1c(O)c3c(c(O)c1C2=O)C[C@@](O)(C(=O)CO)C[C@@H]3O[C@H]1C[C@H](N)[C@H](O)[C@H](C)O1 [Doxorubicin]
Caspase cascade activation ratio, PC-3 [1]: 1.1 | Caspase cascade activation ratio, T-47D [2]: 1.3

COc1cc([C@@H]2c3cc4c(cc3[C@@H](O[C@@H]3O[C@@H]5CO[C@@H](C)O[C@H]5[C@H](O)[C@H]3O)[C@H]3COC(=O)[C@H]23)OCO4)cc(OC)c1O [Etoposide]
Caspase cascade activation ratio, PC-3 [1]: 0.8 | Caspase cascade activation ratio, T-47D [2]: 1.0

CC(C)=CCC/C(C)=C/Cc1c(O)c(CC=C(C)C)c2c(c1O)C(=O)C1=CC3CC4C(C)(C)OC(C/C=C(/C)C(=O)O)(C3=O)C14O2 (stereo not shown) [Example 2, Gambogenic Acid]
EC50 [3]: 0.34 µM | GI50 [4]: 0.5 µM | CC50 ([5]; MRC-5, 48 h, read-out: LC50 (dose for 50% cell death)): 5 µM | GI50 [6, 17]: 3 µM | CC50 ([6]; Homo sapiens, PC-3, 48 h; read-out: LC50 (dose for 50% cell death)): 5 µM | EC50 [7]: 1.16 µM | GI50 [8, 18]: 0.6 µM | CC50 ([8]; Homo sapiens, DU-145, 48 h; read-out: LC50 (dose for 50% cell death)): 5 µM | EC50 [9]: 1.35 µM | GI50 ([10]; T-47D): 0.5 µM | CC50 ([10]; T-47D): 0.5 µM | EC50 ([11]; 24 h incubation, sigmoidal dose-response, read-out: MRC-5 EC50 (caspase activation potency)): 1.26 µM | EC50 [12]: 0.31 µM

CC(C)=CCC/C(C)=C/Cc1c(O)c(CC=C(C)C)c2c(c1O)C(=O)C1=CC3CC4C(C)(C)OC(C/C=C(/C)C=O)(C3=O)C14O2 (stereo not shown) [Example 3, Gambogenin]
GI50 [4]: 3 µM | CC50 at 48 h [5]: 5 µM | CC50 [6, 19]: 5 µM | GI50 [6, 17]: 5 µM | CC50 [8, 20]: 5 µM | GI50 [8, 18]: 2 µM | PC-3 Ratio (caspase activity) [9, 21]: 2.9 | CC50 [10]: 0.5 µM | GI50 ([10]; T-47D): 0.5 µM | T-47D Ratio (caspase activity) [12, 21]: 7.0

CC(C)=CCCC1(C)C=Cc2c(O)c3c(c(CC=C(C)C)c2O1)OC12C(=CC4CC1C(C)(C)OC2(C/C=C(/C)C(=O)N1CCCCC1)C4=O)C3=O (stereo not shown) [Example 5, Gambogyl Piperidine]
EC50 [3]: 0.2 µM | CC50 ([13]; A549, 48 h, read-out: LC50 (dose for 50% cell death)): 5 µM | GI50 ([13]; A549, A-549, 48 h, read-out: GI50 (dose for 50% inhibition of cell proliferation)): 0.8 µM | GI50 [4]: 0.8 µM | CC50 at 48 h [5]: 0.8 µM | CC50 [6, 19]: 0.5 µM | GI50 [6, 17]: 0.5 µM | CC50 ([14]; SHP77, 48 h, read-out: LC50 (dose for 50% cell death)): 0.5 µM | GI50 ([14]; SHP77, SHP-77, 48 h, read-out: GI50 (dose for 50% inhibition of cell proliferation)): 0.5 µM | EC50 [7]: 0.783 µM | CC50 [8, 20]: 0.5 µM | GI50 [8, 18]: 0.5 µM | EC50 [9]: 0.9 µM | CC50 [10]: 0.05 µM | GI50 ([10]; T-47D): 0.05 µM | CC50 [15, 22]: 0.5 µM | GI50 [15, 23]: 0.3 µM | EC50 at 24 h [11]: 0.631 µM | EC50 [12]: 0.21 µM | CC50 [16, 22]: 0.8 µM | GI50 [16, 23]: 0.1 µM
